Test results published in article PMC11219871, “Epigenetic-based differentiation therapy for Acute Myeloid Leukemia” (Nature Communications, 2024).
Where “and” joins values, the source holds several entries; their conditions need not be identical. Identical values can stand only once. One block for each compound: values may come before it.

Tests used:
GF-D8 = assay: Cell proliferation assay: GI50; assay type: cell-based
Experimental: (§1) Cell proliferation was analyzed using the CellTiter 96 Aqueous One Solution Cell Proliferation Assay (Promega, Madison, WI). This is a colorimetric method for determining the number of viable cells in proliferation. For the assay, suspension cells were cultured in triplicate at a density of 1 × 10^6 cells/mL in 96-well plates (100.000 cells/well, 100 µL/well), using only the 60 inner wells to avoid any border effects. After 48 h of treatment with different doses of each compound (0, 0.001, 0.01, 0.1, 0.2, 0.4, 0.6, 0.8, 1, 2, 3, 4, 5 and 10 µM), the plates were centrifuged at 800 g for 10 min followed by removal of the medium. Then, the cells were incubated with 100 μL/well of medium and 20 μL/well of CellTiter 96 Aqueous One Solution reagent for 1–3 h. The absorbance was recorded at 490 and 650 nm as reference wavelengths using 96-well plate readers until the absorbance of the control cells without treatment was approximately 0.8 AU. The background absorbance was measured in wells with only cell line medium and solution reagent. First, the average of the absorbance from the control wells was subtracted from all other absorbance values. Data were calculated as the percentage of total absorbance of treated cells/absorbance of non-treated cells. The GI50 values of the different compounds were determined using non-linear regression plots made with GraphPad Prism v5 software.

HEL = assay: Cell proliferation assay: GI50; assay type: cell-based
Experimental: as §1

KASUMI-1 = assay: Cell proliferation assay: GI50; assay type: cell-based
Experimental: as §1

M-07e = assay: Cell proliferation assay: GI50; assay type: cell-based
Experimental: as §1

MONO-MAC-6 = assay: Cell proliferation assay: GI50; assay type: cell-based
Experimental: as §1

NB-4 = assay: Cell proliferation assay: GI50; assay type: cell-based
Experimental: as §1

OCI-AML2 = assay: Cell proliferation assay: GI50; assay type: cell-based
Experimental: as §1

OCI-AML3 = assay: Cell proliferation assay: GI50; assay type: cell-based
Experimental: as §1

TF-1 = assay: Cell proliferation assay: GI50; assay type: cell-based
Experimental: as §1

THP-1 = assay: Cell proliferation assay: GI50; assay type: cell-based
Experimental: as §1

UT-7 = assay: Cell proliferation assay: GI50; assay type: cell-based
Experimental: as §1

MOLM-13 [1] = assay: Differentiation-apoptosis assay, CD11b / annexin-V / Sytox Green / myeloid markers flow cytometry; assay type: cell-based, human; set-up: Cell viability (%): concentration or dose not given beside the values; CD11b levels: unit not given here
Procedure, shortened: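 Cells washed in PBS, resuspended at 1 × 10^6 cells/mL in binding buffer and stained with APC-CD11b and FITC annexin-V for 15 min at room temperature in the dark, then read by flow cytometry. Other runs used a CD13/HLA-DR/CD14 antibody panel, 30 min staining, then red-cell lysis and washes.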

HL-60 = assay: Cell-cycle analysis; assay type: cell-based, human; settings: HL-60, treatment for 48 hours; replicates 1-3 (Figure 2F)
Experimental: (§2) […] Next, the cells were washed twice with PBS and resuspended in 0.2% Tween 20 in PBS and 0.5 mg/mL Rnase A (Ribonuclease A Type III-A from bovine pancreas, Cat No. R5125, Sigma), and then incubated for 30 min at 37 °C. Subsequently, the cells were stained with 25 μg/mL of propidium iodide (Cat No P4170, Sigma) and analyzed using a BD FACSCanto flow cytometer (Becton Dickinson, San Jose, CA, USA).

ML-2 = assay: Cell-cycle analysis; assay type: cell-based, human; settings: ML-2, treatment for 48 hours; replicates 1-3 (Figure 2F)
Experimental: as §2

MOLM-13 [2] = assay: Cell-cycle analysis; assay type: cell-based, human; settings: MOLM-13, 48 hours
Experimental: as §2

MV4-11 = assay: Cell-cycle analysis; assay type: cell-based, human; settings: MV4-11, 48 hours
Experimental: as §2

[3] = Homo sapiens, Kasumi 1, 48 h, KASUMI-1, 48 h
[4] = Homo sapiens, Kasumi 1, KASUMI-1, replicates 1-3
[5] = Homo sapiens, NB-4, NB-4, replicates 1-3
[6] = Homo sapiens, OCI-AML2, OCI-AML2, replicates 1-3
[7] = Homo sapiens, OCI-AML-3, OCI-AML3, 48 h
[8] = Homo sapiens, OCI-AML-3, OCI-AML3, replicates 1-3
[9] = Homo sapiens, TF-1, TF-1, replicates 1-3
[10] = Homo sapiens, THP-1, replicates 1-3
[11] = Homo sapiens, UT7, 48 h, UT-7, 48 h
[12] = Homo sapiens, UT7, UT-7, replicates 1-3
[13] = MOLM-13 cell line, replicates 1-3 (Figure 2A)
[14] = MOLM-13, 48 h treatment, replicates 1-3 (Suppl. Fig. 5A)
[15] = MOLM-13, daily treatment, time 0 days
[16] = MOLM-13, daily treatment, time 2 days
[17] = MOLM-13, daily treatment, time 4 days
[18] = MOLM-13, daily treatment, time 6 days
[19] = MOLM-13, daily treatment, time 8 days

GI50 (OCI-AML2; Homo sapiens, OCI-AML2, 48 h): > 10000 nM
GI50 (OCI-AML2; [6]): > 10000 nM
GI50 (OCI-AML2; OCI-AML2, replicates 1-3): > 10000 nM
GI50 (OCI-AML3; [7]): > 10000 nM
GI50 (OCI-AML3; [8]): > 10000 nM
GI50 (OCI-AML3; OCI-AML3, replicates 1-3): > 10000 nM
GI50 (THP-1; Homo sapiens, THP-1, 48 h): > 10000 nM
GI50 (THP-1; [10]): > 10000 nM
GI50 (THP-1; THP-1, replicates 1-3): > 10000 nM
SMILES: CC1=C(/C=C/C(C)=C/C=C/C(C)=C/C(=O)O)C(C)(C)CCC1 [ATRA, all-trans retinoic acid, reference compound]
GI50 (GF-D8; 48 h, GF-D8, 48 h): > 10000 nM
GI50 (GF-D8; GF-D8, replicates 1-3): > 10000 nM
GI50 (HEL; Homo sapiens, 48 h): > 10000 nM
GI50 (HEL; Homo sapiens, replicates 1-3): > 10000 nM
GI50 (HEL; replicates 1-3): > 10000 nM
GI50 (KASUMI-1; [3]): > 10000 nM
GI50 (KASUMI-1; [4]): > 10000 nM
GI50 (KASUMI-1; KASUMI-1, replicates 1-3): > 10000 nM
GI50 (M-07e; 48 h): > 10000 nM
GI50 (M-07e; replicates 1-3): > 10000 nM
GI50 (MONO-MAC-6; Homo sapiens, MONO-MAC-6, 48 h): > 10000 nM
GI50 (MONO-MAC-6; Homo sapiens, MONO-MAC-6, MONO-MAC-6, replicates 1-3): > 10000 nM
GI50 (MONO-MAC-6; MONO-MAC-6, replicates 1-3): > 10000 nM
GI50 (NB-4; Homo sapiens, NB-4, 48 h): > 10000 nM
GI50 (NB-4; [5]): > 10000 nM
GI50 (NB-4; NB-4, replicates 1-3): > 10000 nM
GI50 (TF-1; Homo sapiens, TF-1, 48 h): > 10000 nM
GI50 (TF-1; [9]): > 10000 nM
GI50 (TF-1; TF-1, replicates 1-3): > 10000 nM
GI50 (UT-7; [11]): > 10000 nM
GI50 (UT-7; [12]): > 10000 nM
GI50 (UT-7; UT-7, replicates 1-3): > 10000 nM
CD11b (%) (MOLM-13 [1]; [13]): 26.9% and 23.1% and 27.34%

SMILES: COc1cc2nc(-c3ccc(C)o3)cc(NCC3CCN(c4ncc(C(=O)NO)cn4)CC3)c2cc1OC [CM-444, 2-[4-[[[6,7-dimethoxy-2-(5-methyl-2-furyl)-4-quinolyl]amino]methyl]-1-piperidyl]pyrimidine-5-carbohydroxamic acid]
GI50 (GF-D8; GF-D8, replicates 1-3): 7250 nM and 4120 nM and 3690 nM
GI50 (HEL; Homo sapiens, replicates 1-3): 1590 nM
GI50 (HEL; replicates 1-3): 1120 nM and 938 nM
GI50 (KASUMI-1; [3]): 668 nM
GI50 (KASUMI-1; [4]): 521 nM
GI50 (KASUMI-1; KASUMI-1, replicates 1-3): 698 nM and 786 nM
GI50 (M-07e; replicates 1-3): 1330 nM and 1200 nM and 1180 nM
GI50 (MONO-MAC-6; Homo sapiens, MONO-MAC-6, 48 h): 470 nM
GI50 (MONO-MAC-6; MONO-MAC-6, replicates 1-3): 215 nM and 607 nM and 588 nM
GI50 (NB-4; Homo sapiens, NB-4, 48 h): 668 nM
GI50 (NB-4; [5]): 658 nM
GI50 (NB-4; NB-4, replicates 1-3): 785 nM and 563 nM
GI50 (OCI-AML2; Homo sapiens, OCI-AML2, 48 h): 640 nM
GI50 (OCI-AML2; [6]): 736 nM
GI50 (OCI-AML2; OCI-AML2, replicates 1-3): 574 nM and 612 nM
GI50 (OCI-AML3; [7]): > 10000 nM
GI50 (OCI-AML3; [8]): > 10000 nM
GI50 (OCI-AML3; OCI-AML3, replicates 1-3): > 10000 nM
GI50 (TF-1; [9]): 3870 nM
GI50 (TF-1; TF-1, replicates 1-3): 3250 nM and 3500 nM
GI50 (THP-1; Homo sapiens, THP-1, 48 h): > 10000 nM
GI50 (THP-1; [10]): > 10000 nM
GI50 (THP-1; THP-1, replicates 1-3): > 10000 nM
GI50 (UT-7; [11]): 970 nM
GI50 (UT-7; [12]): 875 nM
GI50 (UT-7; UT-7, replicates 1-3): 1070 nM and 965 nM
CD11b (%) (MOLM-13 [1]; MOLM-13, 48 h): 92.8%
CD13 (%) (MOLM-13 [1]; MOLM-13, 48 h): 49.3%
CD14 (%) (MOLM-13 [1]; MOLM-13, 48 h): 66.5%
HLA-DR (%) (MOLM-13 [1]; MOLM-13, 48 h): 35.1%
CD11b (%) (MOLM-13 [1]; [14]): 94.2% and 88.9% and 85.7%
Cell viability (%) (MOLM-13 [1]; [14]): 70.2% and 63.7% and 70.7%
differentiation level (CD11b) (MOLM-13 [1]; MOLM-13, after 6–8 days of treatment): ~90%
CD11b levels (MOLM-13 [1]; MOLM-13, daily treatment for 48 h, replicates 1-3 (Suppl. Fig. 9A)): 43.6 and 50.7 and 40.2
Annexin-V (%) (MOLM-13 [1]; [15]): 4.46% and 6.55% and 4.89%
CD11b (%) (MOLM-13 [1]; [15]): 6.62% and 4.5% and 6.9%
Annexin-V (%) (MOLM-13 [1]; [16]): 24.6% and 15.6% and 17.4%
CD11b (%) (MOLM-13 [1]; [16]): 63% and 58.9% and 57.2%
Annexin-V (%) (MOLM-13 [1]; [17]): 66.7% and 40.3% and 35.6%
CD11b (%) (MOLM-13 [1]; [17]): 60% and 65.3% and 63.1%
Annexin-V (%) (MOLM-13 [1]; [18]): 72.2% and 50.7% and 45.3%
CD11b (%) (MOLM-13 [1]; [18]): 66.7% and 70.8% and 65.2%
Annexin-V (%) (MOLM-13 [1]; [19]): 68.1% and 55.1% and 49.2%
CD11b (%) (MOLM-13 [1]; [19]): 68.9% and 75.7% and 73.6%
CD11b (%) (MOLM-13 [1]; [13]): 73.8% and 63.3% and 68.4%
Cell number (%) G1 (HL-60): 96.96% and 93.22% and 91.97%
Cell number (%) G2/M (HL-60): 4.36% and 1.34% and 3.53%
Cell number (%) S (HL-60): 1.70% and 3.26% and 3.67%
Cell number (%) G1 (ML-2): 96.26% and 93.16% and 96.12%
Cell number (%) G2/M (ML-2): 0.0429% and 0.75% and 2.61%
Cell number (%) S (ML-2): 2.99% and 4.24% and 3.84%
Cell number (%) G1 (MOLM-13 [2]): 98.91% and 98.32% and 98.59%
Cell number (%) G2/M (MOLM-13 [2]): 0.29% and 0.03% and 0.73%
Cell number (%) S (MOLM-13 [2]): 1.06% and 0.95% and 1.11%
Cell number (%) G1 (MV4-11): 92.37% and 89.49% and 89.94%
Cell number (%) G2/M (MV4-11): 2.21% and 0.68% and 3.29%
Cell number (%) S (MV4-11): 6.95% and 7.22% and 7.84%
